Measured values reported in article PMC10135567, “New Indole-3-Propionic Acid and 5-Methoxy-Indole Carboxylic Acid Derived Hydrazone Hybrids as Multifunctional Neuroprotectors” (Antioxidants, 2023).

Key:
SH-SY5Y cells = test: MTT cell viability assay (cytotoxicity), SH-SY5Y
How it was run: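 SH-SY5Y cells seeded at 2 × 10^4 cells/well, adhered 24 h, then exposed to compounds (1–500 μM) for 24 h at 37 °C, 5% CO2; DMSO ≤0.5% as solvent control. MTT (0.5 mg/mL) added for 3 h, formazan dissolved, absorbance read at 570 nm; ≥6 wells per concentration.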

bEnd3 cells = test: MTT cell viability assay (cytotoxicity), bEnd3; format: cell-based, mouse; conditions: 24 h, 1–500 µM
How it was run: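 bEnd3 mouse brain endothelial cells (0.7 × 10^4/well, 24 h adherence) were exposed to compounds at 1–500 μM for 24 h, with 0.5% DMSO as solvent control. Viability was read by MTT reduction (0.5 mg/mL, 3 h, 37 °C) as absorbance at 570 nm.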

[1] = test system: isolated rat-brain synaptosomes; test: Synaptosomal viability (MTT), substances administered alone; conditions: 100 µM
Method: Preparation of the synaptosomes was carried out by multiple centrifugations using the Percoll gradient. Homogenization of the brains was performed in 10 volumes of cold buffer 1, which contained 5 mM HEPES and 0.32 M sucrose (pH = 7.4), followed by centrifugation at different speeds. For preparation of the gradient, the synaptosomes were isolated by Percoll reagent. Synaptosomes were resuspended and incubated in buffer 2, which contained 290 mM NaCl, 0.95 mM MgCl2x6H2O, 10 mM KCl, 2.4 mM CaCl2xH2O, 2.1 mM NaH2PO4, 44 mM HEPES, and 13 mM D-glucose. Incubations were performed in a 5% CO2 + 95% O2 atmosphere. The method of Lowry et al., using bovine serum albumin as a standard content, was applied for determination of synaptosomal protein [51].
Synaptosomal viability was monitored based on a (3-(4,5)-dimethylthiazol-2-yl)-2,5-diphenyl tetrazolium bromide) assay. After incubation with the compounds, synaptosomes were treated with 0.5 mg/mL solution of (3-(4,5)-dimethylthiazol-2-yl)-2,5-diphenyl tetrazolium bromide) for 10 min at […]. Then, the synaptosomes were centrifuged twice at 15,000× g for 1 min. The resulting formazan crystals were dissolved in DMSO (dimethyl sulfoxide), and the extinction was determined by spectrophotometric measurements at 580–660 nm. […]

| Compound | IC50 (SH-SY5Y cells) [µM] | IC50 (bEnd3 cells) [µM] | reduction of synaptosomal viability (SV) vs. non-treated synaptosomes [1] [%] |
| --- | --- | --- | --- |
| N′-(4-Hydroxy-2-methoxybenzylidene)-3-(1H-indol-3-yl)propanehydrazide [Compound 3e] | > 500 | 85.5 |  |
| COc1ccc2[nH]cc(CCNC(C)=O)c2c1 [Melatonin] |  |  | 20 |
